Reference: patent publication US12667824B2, “Carbon dioxide absorbent” (MITSUBISHI GAS CHEMICAL COMPANY, INC., priority 2020, dated 2026)
Like-named read-outs stand apart in the source and are kept apart here.

What was measured:
[1] = Maximum endothermic temperature of amine compound (DSC, volatilization); format: physicochemical; conditions: DSC 23 to 350° C., 10° C./min, nitrogen; volatilization of the amine compound
Description: DSC measurements were performed on the amine compounds used in Examples and Comparative Examples to measure the maximum endothermic temperature of the amine compounds as follows. First, a differential scanning calorimetry was performed on the amine compounds using a differential thermogravimetric analyzer (Product Name: DTG-60 produced by Shimadzu Corporation) under conditions of 23 to 350° C. of a measurement temperature range, 10° C./min of a heating rate, and a nitrogen atmosphere. From the DSC curve obtained thereby, the temperature at which the endothermic amount associated with the volatilization of the amine compound reached the maximum was calculated, and the temperature thereof was used as the maximum endothermic temperature of the amine compound.

[2] = Amine value of amine compound (JIS K7237-1995 titration); format: physicochemical; conditions: 0.1 N perchloric acid-acetic acid titration
Description: The amine value was measured by the following measurement method in accordance with JIS K7237-1995. • (1) Dissolving 0.1 g of the amine compound in 20 mL of the acetic acid. • (2) Calculating the amine value by titrating the solution obtained in the above (1) with the 0.1 N perchloric acid-acetic acid solution using the automatic potentiometric titrator (AT-610 produced by Kyoto Electronics Manufacturing Co., Ltd.).

[3] = Maximum carbon dioxide (CO2) release temperature of amine compound (DSC); format: physicochemical; conditions: amine compound with CO2 absorbed, DSC 23 to 250° C., 10° C./min, nitrogen
Description: (Maximum Carbon Dioxide (CO2) Release Temperature of Amine Compound)
After the above evaluation of the carbon dioxide absorption capacity was completed, the amine compound was removed from the desiccator to obtain the amine compound with carbon dioxide absorbed. The DSC measurement was performed on the amine compound with carbon dioxide absorbed as follows, to measure the maximum carbon dioxide release temperature of the amine compound. […] From the DSC curve obtained thereby, the temperature at which the endothermic amount associated with the desorption of carbon dioxide reached the maximum was calculated, and the temperature thereof was used as the maximum carbon dioxide release temperature of the amine compound.

[4] = Acid dissociation constant (pKa) of amine compound by acid-base titration; format: physicochemical; conditions: in purified water, 25±2° C.
Description: The acid dissociation constant of the amine compound was determined by the following method. • (1) Dissolving 0.2 g of the amine compound in 30 mL of the purified water. • (2) Calculating the acid dissociation constant (pKa) by titrating the solution obtained in the above (1) with the 0.1 N perchloric acid-acetic acid solution using the automatic potentiometric titrator (AT-610 produced by Kyoto Electronics Manufacturing Co., Ltd.).
Still, let the temperature at the time of measurement be 25±2° C.

[5] = Cycle evaluation (absorption, regeneration at 100° C. for 1 hour); conditions: before and after heating at 100° C. for 1 hour; for Weight Retention 1st Time: 1st regeneration; for Weight Retention 2nd Time: 2nd regeneration
Description: After the above evaluation of the carbon dioxide absorption capacity was completed, the amine compound was removed from the desiccator, and the amine compound with carbon dioxide absorbed was heated at 100° C. for 1 hour to release the carbon dioxide absorbed and regenerate the amine compound. At this time, weights of the amine compound before and after the heat treatment were measured, and a weight retention (1st time) was calculated.
Then, on the regenerated amine compound, the above evaluation of the carbon dioxide absorption capacity was performed again, and changes of the carbon dioxide concentration in the desiccator were measured after 2 hours and 24 hours (2nd time).
Then, the amine compound was removed from the desiccator, and the amine compound with carbon dioxide absorbed was heated at 100° C. for 1 hour to release carbon dioxide absorbed and regenerate the amine compound again. At this time, the weights of the amine compound before and after the heat treatment were measured, and the weight retention (2nd time) was calculated.
Next, on the regenerated amine compound, the above evaluation of the carbon dioxide absorption capacity was evaluated again, and changes of the carbon dioxide concentration in the desiccator were measured after 2 hours and 24 hours (3rd time).

Maximum Endothermic Temperature [1]	Amine Value [2]	Maximum CO2 Release Temperature [3]	pKa ([4]; purified water, read-out: pKa)	pKa [4]	Weight Retention 1st Time [5]	Weight Retention 2nd Time [5]	SMILES
155.6 °C	789 mgKOH/g	135.2 °C	10.9				NCC1CCC(CN)CC1 (single isomer, unassigned) [Example 2, 1,4-bis(aminomethyl)cyclohexane]
155.9 °C	789 mgKOH/g	130 °C		11.3			NCC1CCC(CN)CC1 (single isomer, unassigned) [Example 3, 1,4-bis(aminomethyl)cyclohexane]
184.1 °C	1535 mgKOH/g	69.5 °C			98%	95%	NCCNCCNCCN [Comparative Example 2, Triethylenetetramine, reference compound]
			10.9				N#CCCNCC1CCCC(CN)C1 (stereo not shown) [Example 4]
246.7 °C	844 mgKOH/g	97.8 °C			100%	100%	NCCCNCC1CCCC(CNCCCN)C1 (stereo not shown) [Example 5]
